Patent US11534412B2, “Application of totarol and pharmaceutical composition containing totarol” (Emergopharm SP. Z O.O. SP.K., priority 2017, dated 2022)
Like-named read-outs stand apart in the source and are kept apart here.

Tested on: human vaginal epithelial cells of the A-431 cell line
Format: cell-based
Experimental: Test of totarol impact on the human vaginal epithelial cells of the A-431 cell line (ATCC® The study was carried out using the following test: Annexin-V-Fluos (Roche, Mannheim, Germany), during incubation for 2, 8 and 24 hours, under in vitro conditions, according to the instructions of the test's manufacturer. The totarol sample was prepared by dissolution of 3 mg of totarol in 3 ml of 100% DMI.
The cultivation time for the A-431 cell line was 20 days. The culture was carried out at a temperature of 37° C. in an atmosphere containing 10% CO2, on a DMEM culture medium (Institute of Immunology and Experimental Therapy PAS [IITD PAN], Wroclaw), with an addition of 10% of foetal bovine serum (FBS, Sigma-Aldrich). The culture fluid were being replaced regularly every 48 hours. After achieving a decantable growth or the so-called “monolayer”, the cells were passaged using (for approx. 10 min) 0.25% trypsin (Sigma-Aldrich). Then, the obtained tissue line was passed to 24-well plates (TPP), adjusting their densities to the value of 5×10^5 per well. The tissue culture of the studied lines was carried out for 3 next days on the surface of sterile microscope slides placed on the bottom of a 24-well plate, until a decantable growth was obtained on the surface of the microscope slides. After obtaining the so-called “monolayer”, the cells were washed with PBS without Ca^2+ and Mg^2+ ions (IITD PAN, Wroclaw), and poured with 700 µl of fresh DMEM medium with 10% FBS, together with 300 μl of properly prepared totarol. • Negative control: 1000 μl of fresh DMEM medium with 10% FBS. • Solvent control: 700 μl of fresh DMEM medium with 10% FBS+300 μl of DMI solvent. • Necrosis positive control: 900 μl of fresh DMEM medium with 10% FBS+100 μl H2O2 (30%). The proper examination using the Annexin-V-Fluos test causes green staining of apoptotic cells. […] This dye has an ability to penetrate the cell's interior freely only through a damaged cellular membrane, staining the interior red. In the case of a lack of damages of the cellular membrane, propidium iodide remains on its surface, forming a characteristic red “halo” around the cell. After a corresponding study time, i.e. 2, 8, and 24 hours, the culture fluid was removed, the content was washed with PBS (pre-heated to a temperature of 37° C.) twice. Then, 100 μl of the fluorescent stains mixture including in the Annexin-V-Fluos (Roche) kit were applied on the surface of each microscope slide (placed in a culture well) and additionally, Hoechst stain was used (cellular DNA staining). The staining procedure was carried out according to the manufacturer's recommendations. The culture together with the stains applied onto it were incubated at room temperature for 20 min. The intensity of light emitted by the cells stained with the individual stains was observed using a fluorescent microscope at the wavelength of 494-520 nm, using 400× magnification. The cells were counted in five visual fields, and the results were averaged. The reliability of the tests carried out is confirmed by hydrogen peroxide used as a positive control, causing a distinct necrosis process already after 2 hours of incubation. Data analyses were carried out on the basis of the average number of cells from five visual fields in the individual times (2, 8, and 24 h). The results are presented in Table 6 and in the form of photographic documentation—FIGS. 1, 2, 3, 4.

Alive cells (human, 2 h, 0.3 mg/mL): 100 | Alive cells (human, 8 h, 0.3 mg/mL): 100 | Alive cells (human, 24 h, 0.3 mg/mL): 100
SMILES: CC(C)c1c(O)ccc2c1CC[C@H]1C(C)(C)CCC[C@]21C [Totarol, totarol]
apoptosis and necrosis in epithelial cells, photographic documentation: No apoptosis and necrosis | apoptotic and necrotic impact on human vaginal epithelial A-431 cells: lack of apoptotic and necrotic impact | Apopt. cells (human, 2 h, 0.3 mg/mL): 0 | Necrot. cells (human, 2 h, 0.3 mg/mL): 0 | Apopt. cells (human, 8 h, 0.3 mg/mL): 0 | Necrot. cells (human, 8 h, 0.3 mg/mL): 0 | Apopt. cells (human, 24 h, 0.3 mg/mL): 0 | Necrot. Cells (human, 24 h, 0.3 mg/mL): 0
